Results taken from paper PMC12442099 (ACS Infectious Diseases, 2025).
≈ marks a conversion by molar mass, not a printed value.

Key:
[1] = system: Rcs cell envelope stress response in Escherichia coli; test: Rcs stress reporter assay, HTS format, dose-response curves; assay type: cell-based; details: for Emax: read-out: Max. effect (%); for EC50: read-out: pEC50 (converted)
Protocol: We adapted the reporter assay based on the Rcs stress system for HTS in a screening program at the ELF as the first bacterial phenotypic screen used in this setting. , The assay was performed in a 1536-well format using 25 μM PMBN as a reference (set at 100% effect).
The ELF screened their extensive and diverse library consisting of >500,000 small molecules at a concentration of 10 μM. The assay window (S/B) and Z’ values remained stable (2.0–15.2 and 0.50–0.90, respectively) throughout the screening campaign. The detailed standard screening procedure of the ELF is outlined elsewhere. An overview of the selection process of the screening campaign performed here is outlined in Figure . Initially, 340 compounds with an effect ≥20% of the reference compound PMBN were considered biologically active. Usually, up to 1% of the input library is selected for confirmatory, dose–response, orthogonal and deselection assays. Because the number of biological actives identified in this assay was well below the 1% limit, no orthogonal assays were performed. Instead, all compounds were reordered and tested as dilution series in the Rcs assay to generate dose–response curves (DRCs). Each compound’s pEC50 (−log of EC50, defined as the concentration (mol/L) at which 50% effect is achieved) was determined, and compounds with a pEC50 ≥ 4.7 were selected for further analysis. Next, the compounds were subjected to a mammalian cell-based cytotoxicity assay to exclude toxic compounds that may have a generic effect on membrane integrity. Compounds that reduced mammalian cell viability by 50% were considered cytotoxic. The qualified hit list (QHL) was then generated following triaging based on LC-MS analysis and pEC50 values.
Overnight cultures (ONCs) were prepared by inoculating 5 mL medium from glycerol stocks and incubating the culture for 16–18 h. ONCs were then diluted to an OD600 of 0.05 and grown until an OD600 of 0.3–0.4 was reached.
Assay robustness was confirmed by testing its sensitivity to assay-interfering agents, including colored, aggregating and fluorescent compounds. […] For HTS, bacteria were diluted 50x in prewarmed medium. Fifteen nL of assay compounds (10 μM), DMSO (0.25%), or the reference compound polymyxin B nonapeptide (PMBN) at 25 μM were added to 1536 well plates. Next, 6 μL culture aliquots were added to assay plates containing compounds. Plates were briefly centrifuged for 1 min at 150 x g. Plates were incubated at 37 °C with high humidity and fluorescence (Ex./Em. λ: 485/528 nm) was measured at T = 0 and T = 150 min using a ClarioStar plate reader (BMG Labtech). For data analysis, T = 0 values were subtracted from T = 150 values to calculate Z-score and % effect compared to the reference compound.
Dose–response curves of the 340 initial active compounds were determined following the preparation of serial dilutions (20 nM–20 μM; 7 points, √10). The % effect compared to the reference compound PMBN was calculated and plotted for each compound dilution. The resulting plots were used to calculate pEC50 (-log(EC50), with EC50 being determined as the concentration at which a 50% effect is observed).

A. baumanni 9955 = test: MIC broth microdilution; assay type: cell-based; details: Acinetobacter baumannii, clinical isolate, CAMHB, median of triplicates, read-out: MIC (μg/mL) A. baumanni 9955
Protocol: (§1) The antibacterial activity of the compounds was determined by measuring their minimum inhibitory concentration (MIC) values using the broth microdilution method according to the Clinical and Laboratory Standards Institute guidelines (CLSI). Briefly, a single colony from blood agar plates was inoculated into cation-adjusted Mueller-Hinton broth (CAMHB) and grown to OD600 = 0.5. Next, 10^6 CFU/mL were added to a 2-fold serial dilution series of test compounds and incubated at 37 °C, 600 rpm overnight (18–20 h for Gram-negative strains, 20–24 h for Gram-positive strains), after which the plates were visually inspected for bacterial growth. MICs are reported as the median of triplicates.

E. coli 25922 = test: MIC broth microdilution; assay type: cell-based; details: Escherichia coli, CAMHB, median of triplicates, read-out: MIC (μg/mL) E. coli 25922
Protocol: as §1

E. coli BW25113 = test: MIC broth microdilution; assay type: cell-based; details: Escherichia coli, CAMHB, median of triplicates, read-out: MIC (μg/mL) E. coli BW25113
Protocol: as §1

E. coli TOP10F’ = test: MIC broth microdilution; assay type: cell-based; details: Escherichia coli; screening strain; CAMHB, median of triplicates; read-out: MIC (μg/mL) E. coli TOP10F’
Protocol: as §1

K. pneumoniae 13883 = test: MIC broth microdilution; assay type: cell-based; details: Klebsiella pneumoniae, clinical isolate, CAMHB, median of triplicates, read-out: MIC (μg/mL) K. pneumoniae 13883
Protocol: as §1

P. aeruginosa 27853 = test: MIC broth microdilution; assay type: cell-based; details: Pseudomonas aeruginosa, clinical isolate, CAMHB, median of triplicates, read-out: MIC (μg/mL) P. aeruginosa 27853
Protocol: as §1

S. aureus USA 300 = test: MIC broth microdilution; assay type: cell-based; details: Staphylococcus aureus, USA300; clinical isolate; CAMHB, median of triplicates; read-out: MIC (μg/mL) S. aureus USA 300
Protocol: as §1

E. coli TOP10F' = test: Growth inhibition after 7 hours (EC80/EC50); details: Escherichia coli, 7 h; for EC50: read-out: EC50 TOP10F'; for IC80: read-out: EC80 TOP10F'
E. coli MC4100 = test: Growth inhibition after 7 hours (EC80/EC50); details: Escherichia coli, MC4100, 7 h; for EC50: read-out: EC50 MC4100; for IC80: read-out: EC80 MC4100
[2] = system: Rcs stress response in E. coli TOP10F’; test: Rcs stress kinetics reporter assay; assay type: cell-based
Protocol: Stress was measured in real-time during 10 h following compound treatment by normalizing the fluorescence intensity for growth as indicated by the optical density at 600 nm (OD600) of the culture.
3 Bacterial stress responses of different compound classes as shown in panel (A). (B) Rcs, (C) σE, (D) Cpx, and (E) heat shock. Graphs show fold change in fluorescence normalized for OD600 at EC80 compound concentrations over the course of 10h. Fold change values were determined by comparing OD600‑normalized fluorescence of compound-treated samples to DMSO treated samples. PMBN is used as a CE stress-inducing control at 25 μg/mL, which is the concentration used as a control during the screening campaign. Chloramphenicol at 1 μg/mL is used as a non-stress-inducing antibiotic control. Error bars indicate standard deviation of the average of triplicate samples from at least two independent experiments. (F) Overview of the different stress responses based on the compound class.
(§2) For lower throughput analysis under laboratory conditions, cultures grown to OD600 of 0.3–0.4 were diluted to a final concnetration of 0.05 OD600 units/mL in black, clear-bottom 96-well plates (Greiner Bio-One B.V.). Plates were incubated in a Biotek HTX or H1 plate reader (Agilent Technologies) at 37 °C with continuous shaking. Kinetic studies were performed by measuring OD600 and fluorescence (Ex./Em. Λ: 485/528 nm) every 20 min for 10h. For end point measurements, fluorescence was measured at T = 0 and once more at T = 150 min.

[3] = system: SOS stress response in E. coli MC4100; test: SOS stress reporter assay (PlexA-mNG); assay type: cell-based; details: EC80 compound concentrations (Fig. 5A); Fig. S4
Source text: To examine the potential link between DNA gyrase inhibition, SOS stress, and CE stress, we designed a fluorescent SOS reporter plasmid, similar to the reporter plasmids used to study CE stresses.
5 (A) SOS stress induced by different compounds at EC80 concentrations in E. coli MC4100. (B) Rcs stress of different compounds at EC80 concentrations in E. coli MC4100. (C) Rcs stress of the nonquinolone gyrase inhibitor LEI-800 in TOP10F’. (D) Rcs stress induced by mitomycin C in E. coli TOP10F’ and E. coli MC4100. Graphs show fold change in fluorescence adjusted for bacterial growth (OD600). Error bars indicate standard deviation of triplicates. Data are representative of two independent experiments with similar results.

[4] = system: Rcs stress response in E. coli MC4100 (WT, FQR, GEPR); test: Rcs stress reporter assay in MC4100 wildtype and resistant mutants; assay type: cell-based; details: EC80 concentrations
Source text: Serial passaging of E. coli MC4100 in the presence of increasing concentrations of lomefloxacin or gepotidacin yielded resistant variants of E. coli MC4100. We used MC4100 to raise resistance, because unlike the screening strain TOP10F’, this strain has a functional SOS stress response, which has been implicated in developing resistance against quinolones. Compounds also elicited a robust Rcs stress response in E. coli MC4100, allowing for this strain to be used for stress assays.
4 Rcs stress induced by EC80 concentrations of (A) lomefloxacin, (B) gepotidacin, (C) A2, and (D) B1 in wildtype (WT), fluoroquinolone resistant (FQR) or gepotidacin resistant (GEPR) bacteria. Graphs show the fold change in fluorescence adjusted for bacterial growth as determined by OD600. Error bars indicate the standard deviation of triplicate samples. Data are representative of three independent experiments with similar results. […]
as §2

Structure (SMILES)	Emax [1] [%]	EC50 [1] [nM]	MIC (A. baumanni 9955) [µg/mL]	MIC (E. coli 25922) [µg/mL]	MIC (E. coli BW25113) [µg/mL]	MIC (E. coli TOP10F’) [µg/mL]	MIC (K. pneumoniae 13883) [µg/mL]	MIC (P. aeruginosa 27853) [µg/mL]	MIC (S. aureus USA 300) [µg/mL]	EC50 (E. coli TOP10F') [µg/mL]	IC80 (E. coli TOP10F') [µg/mL]	EC50 (E. coli MC4100) [µg/mL]	IC80 (E. coli MC4100) [µg/mL]	induction of stress response systems (Rcs, σE, Cpx, heat shock) ([2]; chloramphenicol 1 μg/mL, negative control)	Rcs stress induction in SOS-deficient TOP10F’ ([2]; fold change fluorescence/OD600)	SOS stress induction in MC4100 [3]	Rcs stress induction in MC4100 wildtype [4]
Cc1ncc(CNC2CCN(CCn3c(=O)ccc4ncc(OCc5ccnn5C)cc43)CC2)cc1Cl [B3]	37.9	5620	8 (≈ 15.3 µM)	16 (≈ 30.6 µM)	16 (≈ 30.6 µM)	2 (≈ 3.83 µM)	64 (≈ 123 µM)	> 64	0.125 (≈ 0.239 µM)	0.016 (≈ 0.0306 µM)	1 (≈ 1.92 µM)	2 (≈ 3.83 µM)	> 16	–	–	–	–
CCc1cc(-c2c(F)cc3c(=O)c(C(=O)O)cn4c3c2OC[C@@H]4C)cc(C)n1 [A3]	18.6	191	0.5 (≈ 1.31 µM)	0.125 (≈ 0.327 µM)	0.125 (≈ 0.327 µM)	< 0.03	1 (≈ 2.62 µM)	8 (≈ 20.9 µM)	0.5 (≈ 1.31 µM)	0.0078 (≈ 0.0204 µM)	0.031 (≈ 0.0811 µM)	0.25 (≈ 0.654 µM)	1 (≈ 2.62 µM)	–	–	–	–
Cc1cc(-c2c(F)cc3c(=O)c(C(=O)O)cn(CCF)c3c2F)cc(C)n1 [A1]	26.1	955	1 (≈ 2.66 µM)	0.5 (≈ 1.33 µM)	0.25 (≈ 0.664 µM)	< 0.03	1 (≈ 2.66 µM)	16 (≈ 42.5 µM)	1 (≈ 2.66 µM)	0.016 (≈ 0.0425 µM)	0.063 (≈ 0.167 µM)	0.5 (≈ 1.33 µM)	2 (≈ 5.31 µM)	–	–	–	–
O=C(N[C@H](CO)[C@H](O)c1ccc([N+](=O)[O-])cc1)C(Cl)Cl [Chloramphenicol]	–	–	–	–	–	–	–	–	–	–	–	–	–	did not induce any of the stress response systems tested	–	–	–
CNn1cc(C(=O)O)c(=O)c2cc(F)c(N3CCN(C(C)C)CC3)cc21 [A4]	20.8	214	2 (≈ 5.52 µM)	0.25 (≈ 0.69 µM)	0.25 (≈ 0.69 µM)	0.125 (≈ 0.345 µM)	0.5 (≈ 1.38 µM)	16 (≈ 44.1 µM)	64 (≈ 177 µM)	2 (≈ 5.52 µM)	4 (≈ 11 µM)	0.25 (≈ 0.69 µM)	1 (≈ 2.76 µM)	–	–	–	–
CN(C)c1ccc(-c2nc(Cl)nc3cccnc23)cc1 [S2]	87.9	7760	–	–	–	–	–	–	–	–	–	–	–	–	–	–	–
O=S(=O)(NC[C@@H]1CC[C@H](c2ccc(-c3cccnc3)cc2)N1)c1cccc2cnccc12 [LEI-800, reference compound]	–	–	–	–	–	–	–	–	–	1 (≈ 2.25 µM)	8 (≈ 18 µM)	2 (≈ 4.5 µM)	8 (≈ 18 µM)	–	induced high levels of Rcs stress similar to CluB compounds	did not induce strong fluorescence	Neither compound induced Rcs stress
COC1CN(CCn2c(=O)ccc3ncc(F)cc32)CCC1NCc1cc(F)c2c(c1)NC(=O)CO2 (stereo not drawn) [B2]	53.2	631	1 (≈ 2 µM)	2 (≈ 4 µM)	1 (≈ 2 µM)	0.06 (≈ 0.12 µM)	4 (≈ 8.01 µM)	8 (≈ 16 µM)	0.25 (≈ 0.5 µM)	< 0.063	2 (≈ 4 µM)	2 (≈ 4 µM)	16 (≈ 32 µM)	–	–	–	–
